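Protocol summary: plate cells (96-well), add compound at 5 concentrations, incubate 48 h, interpolate endpoints linearly. Abbreviation: GI50, concentration required for 50% inhibition of growth.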 Active and inactive are the calls of the source. Cut-off read from the data, not from the text of the source: active = GI50 up to about 1.1 µM and inactive = higher.
Legend:
Experiment in all cases: NCI-60 cell line screen, 48 h
A498 = system: A498
SK-OV-3 = system: SK-OV-3
SK-MEL-2 = system: SK-MEL-2
IGROV-1 = system: IGROV-1
SK-MEL-5 = system: SK-MEL-5
SNB-19 = system: SNB-19
OVCAR-3 = system: OVCAR-3
HCC 2998 = system: HCC 2998
786-0 = system: 786-0
SK-MEL-28 = system: SK-MEL-28
CCRF-CEM = system: CCRF-CEM
HT-29 = system: HT-29
NCI-H522 = system: NCI-H522
K562 = system: K562
T47D = system: T47D
Hs-578T = system: Hs-578T
EKVX = system: EKVX
BT-549 = system: BT-549
RPMI-8226 = system: RPMI-8226

With CC(=O)c1c(-c2ccc(Cl)cc2)c(C#N)c(=S)n(C2OC(CO)C(O)C(O)C2O)c1C (stereo not drawn) the GI50 (A498) was 50.7 µM (inactive), the GI50 (SK-OV-3) was 82.8 µM (inactive) and the GI50 (SK-MEL-2) was 28.2 µM (inactive). For the same compound, the GI50 (IGROV-1) was 35.6 µM (inactive), the GI50 (SK-MEL-5) was 37.2 µM (inactive) and the GI50 (SNB-19) was 31 µM (inactive). The GI50 (OVCAR-3) was 30.8 µM (inactive), the GI50 (HCC 2998) was > 100 µM (inactive) and the GI50 (786-0) was 63.2 µM (inactive). For the same compound, the GI50 (SK-MEL-28) was 34.1 µM (inactive), the GI50 (CCRF-CEM) was 25.9 µM (inactive) and the GI50 (HT-29) was 30.1 µM (inactive). The GI50 (NCI-H522) was 32.3 µM (inactive), the GI50 (K562) was 32.4 µM (inactive) and the GI50 (T47D) was 49.3 µM (inactive).

With O=C(Nc1cccc2cnccc12)c1cc2c(cc1Cl)Sc1nccn1S2(=O)=O the GI50 (SK-OV-3) was 40 µM (inactive), the GI50 (SK-MEL-2) was 13.5 µM (inactive) and the GI50 (IGROV-1) was 15.8 µM (inactive). For the same compound, the GI50 (SK-MEL-5) was 12.1 µM (inactive), the GI50 (SNB-19) was 17.9 µM (inactive) and the GI50 (Hs-578T) was 20.1 µM (inactive). The GI50 (OVCAR-3) was 19.9 µM (inactive), the GI50 (EKVX) was 20.7 µM (inactive) and the GI50 (HCC 2998) was 15.7 µM (inactive). For the same compound, the GI50 (786-0) was 10.9 µM (inactive), the GI50 (SK-MEL-28) was 17.6 µM (inactive) and the GI50 (BT-549) was 10.4 µM (inactive). The GI50 (HT-29) was 14.6 µM (inactive), the GI50 (NCI-H522) was 13.1 µM (inactive) and the GI50 (K562) was 16.2 µM (inactive). The GI50 (T47D) was 6 µM (inactive) and the GI50 (RPMI-8226) was 6.11 µM (inactive).

For CCc1ccc2nccc(NCCCN(C)C)c2c1[N+](=O)[O-], the GI50 (A498) was > 100 µM (inactive), the GI50 (SK-OV-3) was > 100 µM (inactive) and the GI50 (SK-MEL-2) was > 100 µM (inactive). The GI50 (IGROV-1) was > 100 µM (inactive), the GI50 (SK-MEL-5) was 44.3 µM (inactive) and the GI50 (SNB-19) was > 100 µM (inactive). For the same compound, the GI50 (Hs-578T) was 30.9 µM (inactive), the GI50 (OVCAR-3) was 41.1 µM (inactive) and the GI50 (EKVX) was > 100 µM (inactive). The GI50 (HCC 2998) was > 100 µM (inactive), the GI50 (786-0) was > 100 µM (inactive) and the GI50 (SK-MEL-28) was > 100 µM (inactive). The GI50 (CCRF-CEM) was > 100 µM (inactive), the GI50 (HT-29) was 33.4 µM (inactive) and the GI50 (NCI-H522) was 74.6 µM (inactive). For the same compound, the GI50 (K562) was 42.8 µM (inactive), the GI50 (T47D) was > 100 µM (inactive) and the GI50 (RPMI-8226) was > 100 µM (inactive).

CO[C@H]1SC[C@H](OC(C)=O)[C@H](OC(C)=O)[C@H]1OC(C)=O was tested, and the GI50 (SK-MEL-2) was > 100 µM (inactive), the GI50 (IGROV-1) was > 100 µM (inactive) and the GI50 (SK-MEL-5) was > 100 µM (inactive). The GI50 (SNB-19) was > 100 µM (inactive), the GI50 (Hs-578T) was > 100 µM (inactive) and the GI50 (OVCAR-3) was > 100 µM (inactive). For the same compound, the GI50 (EKVX) was > 100 µM (inactive), the GI50 (HCC 2998) was > 100 µM (inactive) and the GI50 (786-0) was > 100 µM (inactive). For the same compound, the GI50 (SK-MEL-28) was > 100 µM (inactive), the GI50 (CCRF-CEM) was > 100 µM (inactive) and the GI50 (BT-549) was > 100 µM (inactive). The GI50 (HT-29) was > 100 µM (inactive), the GI50 (NCI-H522) was > 100 µM (inactive) and the GI50 (K562) was > 100 µM (inactive). For the same compound, the GI50 (T47D) was > 100 µM (inactive) and the GI50 (RPMI-8226) was > 100 µM (inactive).

In the case of CCOP(=O)(OCC)/C(C#N)=C/c1[nH]cnc1C, the GI50 (A498) is reported as > 100 µM (inactive), the GI50 (SK-OV-3) is reported as > 100 µM (inactive) and the GI50 (SK-MEL-2) is reported as > 100 µM (inactive). For the same compound, the GI50 (IGROV-1) was > 100 µM (inactive), the GI50 (SK-MEL-5) was > 100 µM (inactive) and the GI50 (SNB-19) was > 100 µM (inactive). For the same compound, the GI50 (Hs-578T) was > 100 µM (inactive), the GI50 (OVCAR-3) was > 100 µM (inactive) and the GI50 (EKVX) was > 100 µM (inactive). The GI50 (HCC 2998) was > 100 µM (inactive), the GI50 (786-0) was > 100 µM (inactive) and the GI50 (SK-MEL-28) was > 100 µM (inactive). The GI50 (CCRF-CEM) was > 100 µM (inactive), the GI50 (BT-549) was > 100 µM (inactive) and the GI50 (HT-29) was > 100 µM (inactive). For the same compound, the GI50 (NCI-H522) was > 100 µM (inactive), the GI50 (K562) was > 100 µM (inactive) and the GI50 (RPMI-8226) was > 100 µM (inactive).

COC(=O)C1=Nc2c(C)nn(-c3ccccc3)c2N=C(c2ccccc2)C1 was tested, and the GI50 (SK-OV-3) was > 10 µM (inactive), the GI50 (IGROV-1) was > 10 µM (inactive) and the GI50 (SK-MEL-5) was > 10 µM (inactive). For the same compound, the GI50 (SNB-19) was > 10 µM (inactive), the GI50 (Hs-578T) was > 10 µM (inactive) and the GI50 (OVCAR-3) was > 10 µM (inactive). For the same compound, the GI50 (HCC 2998) was > 10 µM (inactive), the GI50 (786-0) was > 10 µM (inactive) and the GI50 (SK-MEL-28) was > 10 µM (inactive). For the same compound, the GI50 (BT-549) was > 10 µM (inactive), the GI50 (HT-29) was > 10 µM (inactive) and the GI50 (NCI-H522) was > 10 µM (inactive). For the same compound, the GI50 (K562) was > 10 µM (inactive), the GI50 (T47D) was > 10 µM (inactive) and the GI50 (RPMI-8226) was > 10 µM (inactive).

CC(=O)c1cccc(Nc2nc3ccc(Cl)cc3c3[nH]c4ccccc4c23)c1 was tested, and the GI50 (SK-OV-3) was 4.15 µM (inactive), the GI50 (SK-MEL-2) was 3.36 µM (inactive) and the GI50 (IGROV-1) was 4.16 µM (inactive). The GI50 (SK-MEL-5) was 1.44 µM (inactive), the GI50 (SNB-19) was 10.5 µM (inactive) and the GI50 (Hs-578T) was 9.35 µM (inactive). For the same compound, the GI50 (OVCAR-3) was 0.045 µM (active), the GI50 (EKVX) was 3.54 µM (inactive) and the GI50 (786-0) was 1.85 µM (inactive). The GI50 (CCRF-CEM) was 27.4 µM (inactive), the GI50 (BT-549) was 64.1 µM (inactive) and the GI50 (HT-29) was 6.21 µM (inactive). The GI50 (NCI-H522) was 2.8 µM (inactive), the GI50 (K562) was 1.41 µM (inactive) and the GI50 (T47D) was 6.52 µM (inactive). For the same compound, the GI50 (RPMI-8226) was 6.95 µM (inactive).

COc1ccc(Cn2c3c(cc(OC(C)=O)c2=O)Cc2ccccc2-3)cc1 was tested, and the GI50 (SK-OV-3) was 20 µM (inactive), the GI50 (SK-MEL-2) was 4.61 µM (inactive) and the GI50 (IGROV-1) was 7.82 µM (inactive). For the same compound, the GI50 (SK-MEL-5) was 12.2 µM (inactive), the GI50 (SNB-19) was 12.9 µM (inactive) and the GI50 (Hs-578T) was 20 µM (inactive). For the same compound, the GI50 (OVCAR-3) was 10.7 µM (inactive), the GI50 (EKVX) was 7.76 µM (inactive) and the GI50 (HCC 2998) was 3.33 µM (inactive). For the same compound, the GI50 (786-0) was 5.33 µM (inactive), the GI50 (SK-MEL-28) was 22.1 µM (inactive) and the GI50 (CCRF-CEM) was 2 µM (inactive). The GI50 (BT-549) was 11.2 µM (inactive), the GI50 (HT-29) was 10.7 µM (inactive) and the GI50 (NCI-H522) was 7.01 µM (inactive). For the same compound, the GI50 (K562) was 11.6 µM (inactive) and the GI50 (T47D) was 14.6 µM (inactive).
